In ChEMBL document CHEMBL6083256, “Design, synthesis and biological evaluation of novel oxazole derivatives as potential hypoglycemic agents” (Bioorg Med Chem, 2024):

What was measured:
HepG2 [1] = assay: Induction of glucose consumption in starved human HepG2 cells assessed as fold increase in activity at 20 uM incubated for 24 hrs relative to control; format: functional
Mus musculus = assay: Hypoglycemic activity in overnight-fasted C57BL/6J mouse assessed as reduction in blood glucose level at 80 mg/kg, ip pretreated for 30 mins followed by glucose administration measured upto 120 mins by OGTT analysis; format: functional, organism-based; conditions: time 150.0 min
[2] = Cytotoxicity against human HepG2 cells incubated for 72 hrs by CCK8 assay; format: toxicity, cell-based
[3] = Cytotoxicity against mouse 3T3-L1 cells incubated for 72 hrs by CCK8 assay; format: toxicity, cell-based
HepG2 [4] = assay: Induction of glucose consumption in starved human HepG2 cells incubated for 24 hrs; format: functional, cell-based; conditions: dose 1-25 µM
3T3-L1 [5] = assay: Cytotoxicity against mouse 3T3-L1 cells at 25 uM incubated for 72 hrs by CCK8 assay; format: toxicity, cell-based; conditions: 3t3-l1, 72 h
HepG2 [6] = assay: Cytotoxicity against human HepG2 cells at 25 uM incubated for 72 hrs by CCK8 assay; format: toxicity, cell-based; conditions: hepg2, 72 h
3T3-L1 [7] = assay: Induction of glucose consumption in starved mouse 3T3-L1 cells incubated for 24 hrs; format: functional, cell-based; conditions: dose 1-25 µM
3T3-L1 [8] = assay: Cytotoxicity against mouse 3T3-L1 cells assessed as change in cell morphology at 3.125 to 100 uM incubated for 72 hrs; format: toxicity, cell-based; conditions: 3t3-l1, 72 h, dose 3.125-100 µM
HepG2 [9] = assay: Cytotoxicity against human HepG2 cells assessed as change in cell morphology at 3.125 to 100 uM incubated for 72 hrs; format: toxicity, cell-based; conditions: hepg2, 72 h, dose 3.125-100 µM
HepG2 [10] = assay: Induction of glucose consumption in starved human HepG2 cells assessed as fold increase in activity at 2 mM incubated for 24 hrs relative to control; format: functional
CYP2C9 = CYP2C9 (Homo sapiens, UniProt P11712); assay: Inhibition of CYP2C9 in human liver microsomes at 10 uM relative to control; format: ADME, Microsome
[11] = molecular target: AMP-activated protein kinase, AMPK (Homo sapiens) (UniProt P54646+O43741+P54619+Q9UGJ0+Q9Y478+Q13131+Q9UGI9); assay: Induction of AMPK phosphorylation at Thr172 in human HepG2 cells incubated for 24 hrs by Western blot analysis; format: cell-based; conditions: filed as activator
CYP1A2 = molecular target: T1, CYP1A2 (Homo sapiens, UniProt P05177); assay: Inhibition of CYP1A2 in human liver microsomes at 10 uM relative to control; format: ADME, Microsome
T1 sequence (P05177 whole entry): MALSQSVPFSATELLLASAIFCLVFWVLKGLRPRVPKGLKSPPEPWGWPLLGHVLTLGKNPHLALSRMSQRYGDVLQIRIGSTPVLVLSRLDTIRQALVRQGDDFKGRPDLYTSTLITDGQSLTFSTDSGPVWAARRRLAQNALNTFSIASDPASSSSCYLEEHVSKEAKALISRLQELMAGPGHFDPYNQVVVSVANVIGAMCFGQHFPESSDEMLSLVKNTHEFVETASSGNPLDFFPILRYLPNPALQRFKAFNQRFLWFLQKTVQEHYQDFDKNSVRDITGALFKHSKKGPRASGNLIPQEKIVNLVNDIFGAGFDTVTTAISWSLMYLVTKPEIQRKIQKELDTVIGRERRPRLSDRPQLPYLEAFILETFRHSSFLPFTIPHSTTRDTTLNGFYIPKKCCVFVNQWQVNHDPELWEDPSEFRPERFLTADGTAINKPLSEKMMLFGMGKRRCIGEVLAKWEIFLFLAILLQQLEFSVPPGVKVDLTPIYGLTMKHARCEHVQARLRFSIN

CYP3A4 = CYP3A4 (Homo sapiens, UniProt P08684); assay: Inhibition of CYP3A4 in human liver microsomes at 10 uM relative to control; format: ADME, Microsome
CYP2C19 = CYP2C19 (Homo sapiens, UniProt P33261); assay: Inhibition of CYP2C19 in human liver microsomes at 10 uM relative to control; format: ADME, Microsome
CYP2D6 = CYP2D6 (Homo sapiens, UniProt P10635); assay: Inhibition of CYP2D6 in human liver microsomes at 10 uM relative to control; format: ADME, Microsome
3T3-L1 [12] = assay: Cytotoxicity against mouse 3T3-L1 cells at 100 uM incubated for 72 hrs by CCK8 assay; format: toxicity, cell-based; conditions: 3t3-l1, 72 h
HepG2 [13] = assay: Cytotoxicity against human HepG2 cells at 100 uM incubated for 72 hrs by CCK8 assay; format: toxicity, cell-based; conditions: hepg2, 72 h

CYP3A4, sequence (P08684 whole entry): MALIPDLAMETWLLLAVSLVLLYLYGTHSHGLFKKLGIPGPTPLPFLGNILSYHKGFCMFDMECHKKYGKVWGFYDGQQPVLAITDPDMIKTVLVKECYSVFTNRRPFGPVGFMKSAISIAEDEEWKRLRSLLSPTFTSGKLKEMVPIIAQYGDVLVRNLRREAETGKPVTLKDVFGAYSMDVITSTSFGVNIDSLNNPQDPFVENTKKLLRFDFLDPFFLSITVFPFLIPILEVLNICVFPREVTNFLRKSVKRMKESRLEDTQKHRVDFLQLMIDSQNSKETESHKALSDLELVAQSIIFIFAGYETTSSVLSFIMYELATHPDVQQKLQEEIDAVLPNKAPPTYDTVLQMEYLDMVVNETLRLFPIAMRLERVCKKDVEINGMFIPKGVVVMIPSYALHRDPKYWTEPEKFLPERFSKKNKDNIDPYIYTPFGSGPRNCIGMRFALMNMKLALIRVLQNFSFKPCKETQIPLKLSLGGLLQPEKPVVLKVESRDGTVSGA
CYP2C9, sequence (P11712 whole entry): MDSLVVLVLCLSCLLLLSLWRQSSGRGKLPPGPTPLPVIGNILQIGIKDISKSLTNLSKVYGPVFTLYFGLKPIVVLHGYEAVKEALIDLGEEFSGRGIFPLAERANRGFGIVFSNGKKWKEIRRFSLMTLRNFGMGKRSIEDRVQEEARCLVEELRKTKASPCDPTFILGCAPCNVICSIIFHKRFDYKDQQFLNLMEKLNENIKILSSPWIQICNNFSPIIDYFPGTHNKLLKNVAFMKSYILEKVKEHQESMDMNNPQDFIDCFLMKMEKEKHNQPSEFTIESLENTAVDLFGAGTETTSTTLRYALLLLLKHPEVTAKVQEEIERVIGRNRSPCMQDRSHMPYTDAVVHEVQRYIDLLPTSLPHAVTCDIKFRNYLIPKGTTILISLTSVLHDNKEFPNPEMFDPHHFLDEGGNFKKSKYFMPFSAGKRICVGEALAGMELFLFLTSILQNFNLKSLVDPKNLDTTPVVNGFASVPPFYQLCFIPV
CYP2C19, sequence (P33261 whole entry): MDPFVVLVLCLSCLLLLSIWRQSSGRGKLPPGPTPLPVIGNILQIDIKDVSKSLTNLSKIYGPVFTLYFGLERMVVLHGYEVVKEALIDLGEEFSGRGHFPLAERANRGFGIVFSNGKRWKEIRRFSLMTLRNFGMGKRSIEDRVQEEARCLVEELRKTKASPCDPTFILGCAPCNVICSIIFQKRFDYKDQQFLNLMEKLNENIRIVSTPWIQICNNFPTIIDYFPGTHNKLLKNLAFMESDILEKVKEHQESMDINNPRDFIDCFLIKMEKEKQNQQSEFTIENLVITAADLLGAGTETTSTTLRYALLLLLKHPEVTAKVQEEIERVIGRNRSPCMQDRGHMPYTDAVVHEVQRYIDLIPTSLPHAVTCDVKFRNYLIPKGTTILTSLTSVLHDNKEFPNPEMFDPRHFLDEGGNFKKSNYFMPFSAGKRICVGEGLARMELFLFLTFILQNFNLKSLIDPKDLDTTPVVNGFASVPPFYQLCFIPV
CYP2D6, sequence (P10635 whole entry): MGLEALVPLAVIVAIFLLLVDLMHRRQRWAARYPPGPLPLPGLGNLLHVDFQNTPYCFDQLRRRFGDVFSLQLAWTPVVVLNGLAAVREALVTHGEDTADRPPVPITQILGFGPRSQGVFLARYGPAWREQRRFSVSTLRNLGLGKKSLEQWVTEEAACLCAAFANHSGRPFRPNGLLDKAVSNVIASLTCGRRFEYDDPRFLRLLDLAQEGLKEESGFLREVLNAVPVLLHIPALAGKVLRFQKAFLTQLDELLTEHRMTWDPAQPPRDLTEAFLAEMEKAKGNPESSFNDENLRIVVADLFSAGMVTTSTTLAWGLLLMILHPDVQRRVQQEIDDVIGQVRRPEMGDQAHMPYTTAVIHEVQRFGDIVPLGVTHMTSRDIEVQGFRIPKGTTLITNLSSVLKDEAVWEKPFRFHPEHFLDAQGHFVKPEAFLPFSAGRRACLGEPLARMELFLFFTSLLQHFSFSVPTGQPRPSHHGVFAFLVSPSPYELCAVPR

Structure (SMILES): OC1CCN(Cc2coc(-c3ccc(C(F)(F)F)cc3)n2)CC1
- fold change (FC) (HepG2 [1]): 1.42

Structure (SMILES): COC1CCN(Cc2coc(-c3ccc(C(F)(F)F)cc3)n2)CC1
- Activity (Mus musculus): Not active; Exhibited Weak Activity
- IC50 at 72 h [2]: > 100 µM
- IC50 at 72 h [3]: > 100 µM
- Activity (HepG2 [4]): Dose-dependent-effect
- Activity (3T3-L1 [5]): Non-toxic
- Activity (HepG2 [6]): Non-toxic
- Activity (3T3-L1 [7]): Dose-dependent-effect
- Activity (3T3-L1 [8]): Non-toxic
- Activity (HepG2 [9]): Non-toxic
- fold change (FC) (HepG2 [1]): 1.61

Structure (SMILES): COc1cccc(-c2nc(CN3CCC(CO)CC3)co2)c1
- fold change (FC) (HepG2 [1]): 1.27

Structure (SMILES): OCC1CCN(Cc2coc(-c3cc(F)cc(F)c3)n2)CC1
- fold change (FC) (HepG2 [1]): 0.95

Structure (SMILES): CC(=O)N1CCN(Cc2coc(-c3ccc(C(F)(F)F)cc3)n2)CC1
- fold change (FC) (HepG2 [1]): 1.21

Structure (SMILES): OCC1CCN(Cc2coc(-c3cccc(C(F)(F)F)c3)n2)CC1
- fold change (FC) (HepG2 [1]): 1.4

Structure (SMILES): CCOC1CCN(Cc2coc(-c3ccc(C(F)(F)F)cc3)n2)CC1
- fold change (FC) (HepG2 [1]): 1.42

Structure (SMILES): COC1CCCN(Cc2coc(-c3ccc(C(F)(F)F)cc3)n2)C1 (configuration not stated)
- fold change (FC) (HepG2 [1]): 1.05

Structure (SMILES): COc1ccc(-c2nc(CN3CCC(CO)CC3)co2)cc1
- fold change (FC) (HepG2 [1]): 1.05

Structure (SMILES): CN(C)C(=N)NC(=N)N [METFORMIN]
- fold change (FC) (HepG2 [10]): 1.57

Structure (SMILES): CS(=O)(=O)N1CCN(Cc2coc(-c3ccc(C(F)(F)F)cc3)n2)CC1
- Activity (Mus musculus): Not active; Exhibited Minimal Activity
- IC50 at 72 h [2]: > 100 µM
- IC50 at 72 h [3]: > 100 µM
- Activity (HepG2 [4]): Dose-dependent-effect
- Activity (3T3-L1 [5]): Non-toxic
- Activity (HepG2 [6]): Non-toxic
- Activity (3T3-L1 [7]): Dose-dependent-effect
- Activity (3T3-L1 [8]): Non-toxic
- Activity (HepG2 [9]): Non-toxic
- fold change (FC) (HepG2 [1]): 1.63

Structure (SMILES): COC(=O)C1CCN(Cc2coc(-c3ccc(C(F)(F)F)cc3)n2)CC1
- inhibition at 10 µM (CYP2C9): 5.8%
- Activity (Mus musculus): Active; Exhibited Strongest Activity Than Other Tested Compounds
- IC50 at 72 h [2]: > 100 µM
- Activity [11]: Dose-dependent-effect
- IC50 at 72 h [3]: > 100 µM
- Activity (HepG2 [4]): Dose-dependent-effect
- Activity (3T3-L1 [5]): Non-toxic
- Activity (HepG2 [6]): Non-toxic
- inhibition at 10 µM (CYP1A2): 16.2%
- Activity (3T3-L1 [7]): Dose-dependent-effect
- Activity (3T3-L1 [8]): Non-toxic
- inhibition at 10 µM (CYP3A4): 2.1%
- Activity (HepG2 [9]): Non-toxic
- fold change (FC) (HepG2 [1]): 1.6
- inhibition at 10 µM (CYP2C19): 21.7%
- inhibition at 10 µM (CYP2D6): 4.6%

Structure (SMILES): OCC1CCN(Cc2coc(-c3ccccc3)n2)CC1
- fold change (FC) (HepG2 [1]): 1.36

Structure (SMILES): CC(C)(C)OC(=O)N1CCN(Cc2coc(-c3ccc(C(F)(F)F)cc3)n2)CC1
- fold change (FC) (HepG2 [1]): 1.46

Structure (SMILES): FC(F)(F)c1ccc(-c2nc(CN3CCOCC3)co2)cc1
- fold change (FC) (HepG2 [1]): 1.52

Structure (SMILES): OCC1CCN(Cc2coc(-c3ccc(Cl)cc3)n2)CC1
- fold change (FC) (HepG2 [1]): 1.24

Structure (SMILES): OCC1CCCN(Cc2coc(-c3ccc(C(F)(F)F)cc3)n2)C1 (configuration not stated)
- fold change (FC) (HepG2 [1]): 1.42

Structure (SMILES): OCC1CCN(Cc2coc(-c3ccc(F)cc3)n2)CC1
- fold change (FC) (HepG2 [1]): 1.27

Structure (SMILES): OCC1CCN(Cc2coc(-c3ccc(C(F)(F)F)cc3)n2)CC1
- fold change (FC) (HepG2 [1]): 1.43

Structure (SMILES): CCOC(=O)C1CCN(Cc2coc(-c3ccc(C(F)(F)F)cc3)n2)CC1
- fold change (FC) (HepG2 [1]): 1.34

Structure (SMILES): OCC1CCN(Cc2coc(-c3cccc(F)c3)n2)CC1
- fold change (FC) (HepG2 [1]): 1.12

Structure (SMILES): CS(=O)(=O)C1CCN(Cc2coc(-c3ccc(C(F)(F)F)cc3)n2)CC1
- fold change (FC) (HepG2 [1]): 1.39

Structure (SMILES): COCC1CCN(Cc2coc(-c3ccc(C(F)(F)F)cc3)n2)CC1
- fold change (FC) (HepG2 [1]): 1.2

Structure (SMILES): Cc1cccc(-c2nc(CN3CCC(CO)CC3)co2)c1
- fold change (FC) (HepG2 [1]): 1.25

Structure (SMILES): OC1CCCN(Cc2coc(-c3ccc(C(F)(F)F)cc3)n2)C1 (configuration not stated)
- fold change (FC) (HepG2 [1]): 1.49

Structure (SMILES): NC1CCN(Cc2coc(-c3ccc(C(F)(F)F)cc3)n2)CC1
- Activity (Mus musculus): Not active; Exhibited Minimal Activity
- Activity (HepG2 [4]): Dose-dependent-effect
- Activity (3T3-L1 [12]): Toxic
- Activity (HepG2 [13]): Toxic
- Activity (3T3-L1 [7]): Dose-dependent-effect
- fold change (FC) (HepG2 [1]): 1.6

Structure (SMILES): CN1CCN(Cc2coc(-c3ccc(C(F)(F)F)cc3)n2)CC1
- fold change (FC) (HepG2 [1]): 1.5

Structure (SMILES): Cc1ccc(-c2nc(CN3CCC(CO)CC3)co2)cc1
- fold change (FC) (HepG2 [1]): 1.39

Structure (SMILES): OCC1CCN(Cc2coc(-c3cccc(Cl)c3)n2)CC1
- fold change (FC) (HepG2 [1]): 1.05
